Test results from PubChem BioAssay AID1259408 (Genetic Toxicology Data Bank (GENE-TOX), 2018).
Calls of active or inactive are those of the source. How the calls were made is not given here.

Tested on: GENE-TOX genotoxicity assays, various organisms and cells
Assay: GENE-TOX mutagenicity studies
Conditions: for call: Assay Type: In vivo carcinogenicity studies
[1] = Species/Cell Type: Arabidopsis species, Assay Type: Gene mutation, Assay Code: ARM-, Evaluation Type: Evaluation A (Pre-1980)
[2] = Species/Cell Type: Salmonella typhimurium (one or more of the five standard strains: TA98, TA100, TA1535, TA1537, and TA1538), Assay Type: Histidine reverse gene mutation, Ames assay, Assay Code: SAL-, Evaluation Type: Evaluation A (Pre-1980)
[3] = Species/Cell Type: Salmonella typhimurium (one or more of the five standard strains: TA98, TA100, TA1535, TA1537, and TA1538), Assay Type: Histidine reverse gene mutation, Ames assay, Assay Code: SAL+, Evaluation Type: Evaluation A (Pre-1980)

`O=[N+]([O-])c1ccc(/C=C/c2cccc(CO)n2)o1` was tested, and the mutagenic call (Species/Cell Type: Human diploid fibroblasts, Assay Type: Unscheduled DNA synthesis (UDS) in vitro, DNA effects, Assay Code: UDH+, Evaluation Type: Evaluation A (Pre-1980)) was “active; positive”.
In the case of `O=C(N[C@H](CO)[C@H](O)c1ccc([N+](=O)[O-])cc1)C(Cl)Cl`, the mutagenic call [1] is reported as “inactive; negative”, the mutagenic call (Species/Cell Type: Bacillus subtilis (H17 vs M45), Assay Type: Rec-assay, spot test, DNA effects (bacterial DNA repair), Assay Code: REW-, Evaluation Type: Evaluation A (Pre-1980)) is reported as “inactive; negative” and the mutagenic call (Species/Cell Type: Bacillus subtilis (H17 vs M45T), Assay Type: Rec-assay, spot test, DNA effects (bacterial DNA repair), Assay Code: REXT, Evaluation Type: Evaluation A (Pre-1980)) is reported as “no conclusion”. The mutagenic call (Species/Cell Type: Drosophila melanogaster, Assay Type: Sex-linked recessive lethal gene mutation, Assay Code: SRLT, Evaluation Type: Evaluation A (Pre-1980)) was “no conclusion”, the mutagenic call (Species/Cell Type: Escherichia coli WP2, Assay Type: Tryptophan reverse gene mutation, Assay Code: WP2-, Evaluation Type: Evaluation A (Pre-1980)) was “inactive; negative” and the mutagenic call (Species/Cell Type: Escherichia coli polA (W3110 vs P3478), Assay Type: Rec-assay, DNA effects (bacterial DNA repair), Assay Code: RE2-, Evaluation Type: Evaluation A (Pre-1980)) was “inactive; negative”. For the same compound, the mutagenic call (Species/Cell Type: Escherichia coli polA (W3119 vs P3478), Assay Type: Rec-assay, DNA effects (bacterial DNA repair), Assay Code: RE1-, Evaluation Type: Evaluation A (Pre-1980)) was “inactive; negative”, the call (Species/Cell Type: Nonhuman, Assay Code: CCGT, Evaluation Type: Evaluation A (Pre-1980)) was “no conclusion” and the mutagenic call (Species/Cell Type: Rodents, Sex: Male, Assay Type: Dominant lethal test, Assay Code: DLT+, Evaluation Type: Evaluation A (Pre-1980)) was “active; positive”. For the same compound, the mutagenic call [2] was “inactive; negative”.
With `COc1cc(O)c2c(=O)c(O)c(-c3ccc(O)c(O)c3)oc2c1` the mutagenic call (Species/Cell Type: Mammalian polychromatic erythrocytes, Assay Type: Micronucleus test, chromosome aberrations, Assay Code: MNTT, Evaluation Type: Evaluation B (Post-1980)) was “no conclusion”.
With `O=c1cc[nH]c2ccccc12` the mutagenic call [2] was “inactive; negative”.
In the case of `O.O.O.O.O=C([O-])[O-].[Ni+2].[Ni].[Ni]`, the mutagenic call (Species/Cell Type: Nonhuman, Assay Type: Sister-chromatid exchange (SCE) in vitro, Assay Code: SC2+, Evaluation Type: Evaluation B (Post-1980)) is reported as “active; positive”.
`CN(N=O)c1ccccc1` was tested, and the mutagenic call (Species/Cell Type: Chinese hamster lung (V79) cells, Assay Type: Forward gene mutation at the HPRT or ouabain locus, Assay Code: V79-*, Activation: With metabolic activation, Evaluation Type: Evaluation A (Pre-1980)) was “inactive; negative” and the mutagenic call (Species/Cell Type: Vicia faba, Assay Type: Chromosome aberrations, Assay Code: VIC+, Evaluation Type: Evaluation A (Pre-1980)) was “active; positive”.
In the case of `O=CONC(=O)c1ccc2ccccc2c1`, the mutagenic call (Species/Cell Type: Nonhuman, Assay Type: Sister-chromatid exchange (SCE) in vitro, Assay Code: SC2+D, Dose Response: With dose response, Evaluation Type: Evaluation B (Post-1980)) is reported as “active; positive”.
For `O=C1Nc2ccc([N+](=O)[O-])cc2C1=O`, the mutagenic call [3] was “active; positive”.
With `Nc1cc(S(=O)(=O)O)cc2c1C(=O)/C(=N/Nc1ccc(-c3ccc(N/N=C4/C(=O)c5c(N)cc(S(=O)(=O)O)cc5C=C4S(=O)(=O)O)cc3)cc1)C(S(=O)(=O)O)=C2` the call (Species/Cell Type: Nonhuman, Assay Code: CCG+, Evaluation Type: Evaluation A (Pre-1980)) was “active; positive”.
With `O=C1c2ccccc2C(=O)N1SC(Cl)(Cl)Cl` the mutagenic call (Species/Cell Type: Bacillus subtilis (H17 vs M45), Assay Type: Rec-assay, spot test, DNA effects (bacterial DNA repair), Assay Code: REWT, Evaluation Type: Evaluation A (Pre-1980)) was “no conclusion”, the mutagenic call (Species/Cell Type: Chinese hamster ovary (CHO) cells, Assay Type: Forward gene mutation at the HPRT locus, Assay Code: CHO+, Evaluation Type: Evaluation B (Post-1980)) was “active; positive” and the mutagenic call (Species/Cell Type: Drosophila melanogaster, Assay Type: Sex-linked recessive lethal gene mutation, Assay Code: SRL+, Evaluation Type: Evaluation A (Pre-1980)) was “active; positive”. The mutagenic call (Species/Cell Type: Escherichia coli WP2, Assay Type: Tryptophan reverse gene mutation, Assay Code: WP2+, Evaluation Type: Evaluation A (Pre-1980)) was “active; positive”, the mutagenic call (Species/Cell Type: Escherichia coli WP2 UVRA, Assay Type: Tryptophan reverse gene mutation, Assay Code: WPU+/-*, Activation: With metabolic activation, Evaluation Type: Evaluation A (Pre-1980)) was “inactive; positive without activation, negative with activation” and the mutagenic call (Species/Cell Type: Escherichia coli polA (W3119 vs P3478), Assay Type: Rec-assay, DNA effects (bacterial DNA repair), Assay Code: RE1+, Evaluation Type: Evaluation A (Pre-1980)) was “active; positive”. For the same compound, the mutagenic call (Species/Cell Type: Human diploid fibroblasts, Assay Type: Unscheduled DNA synthesis (UDS) in vitro, DNA effects, Assay Code: UDH-, Evaluation Type: Evaluation A (Pre-1980)) was “inactive; negative”, the mutagenic call (Species/Cell Type: Rodents, Sex: Male, Assay Type: Dominant lethal test, Assay Code: DLTT, Evaluation Type: Evaluation A (Pre-1980)) was “no conclusion” and the mutagenic call (Species/Cell Type: Saccharomyces cerevisiae, Assay Type: Mitotic recombination or gene conversion, Assay Code: YEC+, Evaluation Type: Evaluation A (Pre-1980)) was “active; positive”. The mutagenic call (Species/Cell Type: Saccharomyces cerevisiae, Assay Type: Mitotic recombination or gene conversion, Assay Code: YEH+, Evaluation Type: Evaluation A (Pre-1980)) was “active; positive”, the mutagenic call [3] was “active; positive” and the mutagenic call (Species/Cell Type: Salmonella typhimurium, Assay Type: Forward and reverse gene mutation, host-mediated assay, Assay Code: HMA-, Evaluation Type: Evaluation A (Pre-1980)) was “inactive; negative”.
`O=[N+]([O-])[O-].O=[N+]([O-])[O-].[Cd+2]` was tested, and the mutagenic call (Species/Cell Type: Bacillus subtilis (H17 vs M45), Assay Type: Rec-assay, spot test, DNA effects (bacterial DNA repair), Assay Code: REW+, Evaluation Type: Evaluation A (Pre-1980)) was “active; positive”.
In the case of `OCSc1ncc[nH]1`, the mutagenic call [1] is reported as “inactive; negative”.
`CC1CN(N=O)C(C)CN1N=O` (centres undefined) was tested, and the mutagenic call (Species/Cell Type: Salmonella typhimurium (one or more of the five standard strains: TA98, TA100, TA1535, TA1537, and TA1538), Assay Type: Histidine reverse gene mutation, Ames assay, Assay Code: SAL+*, Activation: With metabolic activation, Evaluation Type: Evaluation A (Pre-1980)) was “active; positive”.
